{"source": "patent US20120301551A1", "about": "“COMPOUNDS AND COMPOSITIONS FOR TREATING NEURONAL DEATH OR NEUROLOGICAL DYSFUNCTION” (Neurotech Pharmaceuticals Co., Ltd., priority 2005, published 2012)", "key": {"[1]": {"tested_on": "G93A transgenic mice", "format": "in vivo, mouse", "procedure": "Animals were daily fed with 2-hydroxy TTBA (30 mg/kg/d), 0.2% lithium carbonate (200 mg/kg/d, Li), or a combination of both (2-hydroxy TTBA+Li) from 8 weeks of age in diet.\nAnimals were daily fed with 2-hydroxy TTBA (30 mg/kg/d), 0.2% lithium carbonate (Li), or a combination of both (2-hydroxy TTBA+Li) from 8 weeks of age in diet.\nC & D: (C) Bright-field photomicrographs of cresyl violet-stained ventral horn sections from the wild type (a), or G93AA transgenic mice treated with vehicle (b), or with a combination of 2-hydroxy TTBA+Li (c) at 16 weeks of age."}, "[2]": {"test": "DPPH free radical scavenging", "format": "biochemical", "from_the_text": "Free radical scavenging activity of chemical 01 was directly evaluated with 1,1-diphenyl-2-picrylhydrazil (DPPH, a stable free radical)."}, "[3]": {"test": "hydroxyl radical scavenging in test tube", "format": "biochemical", "procedure": "In addition, scavenging effects of superoxide and hydroxyl radical in test tube were evaluated. Hydroxyl radical scavenging activities of 0.1 uM, 1 uM and 10 uM of chemical 01 were 13.35%, 33.33% and 71.72%, respectively."}, "[4]": {"tested_on": "IL-1β", "test": "LPS-induced IL-1β production in BV2 cells", "format": "cell-based", "procedure": "(§1) Suppressing effects of chemical 01 in BV2 cell lines on production of IL-1β, IL-6 or TNF-α were evaluated. BV2 cells were exposed to 1 ug/ml LPS (inflammation-inducing material) with inclusion of chemical 01 at indicated doses. After 4 hours, supernatant were collected and concentrations of TNF-a were evaluated. In addition, BV2 cells were treated by the same method, and 24 hours later, supernatant were collected and concentrations of IL-1β and IL-6 were evaluated (mean±SEM, n=3). BV2 cells treated with LPS only were used as control."}, "[5]": {"tested_on": "IL-6", "test": "LPS-induced IL-6 production in BV2 cells", "format": "cell-based", "procedure": "as §1"}, "[6]": {"tested_on": "Tg2576 transgenic mice", "test": "amyloid plaque burden in Tg2576 transgenic mice (Thioflavin-S)", "format": "in vivo, mouse", "procedure": "[…] 18˜20 um brain cryo-sections were stained with 1% Thioflavin-S for 5 minutes and observed under fluorescence microscope system. Amyloid plaque burden/brain was quantified with MetaVue Image software (mean±SEM, n=2).\n[…] 18˜20 μm brain sections stained 1% Thioflavin-S for 5 min and observed under fluorescence microscope system."}, "[7]": {"tested_on": "APPswe/PS1deltaE9 double transgenic mice", "test": "brain Aβ40/Aβ42 levels in APPswe/PS1deltaE9 double transgenic mice (ELISA)", "format": "in vivo, mouse", "procedure": "SDS-soluble/insoluble Aβ40 or Aβ42 levels were analyzed by colorimetric sandwich ELISA kit (BIOSOURCE, Camarillo, Calif.)."}, "[8]": {"tested_on": "APPswe/PS1deltaE9 double transgenic mice", "test": "Morris water maze in APPswe/PS1deltaE9 double transgenic mice", "format": "in vivo, mouse", "conditions": "25 mg/kg/day chemical 01 or 62.5 mg/kg/day ibuprofen for 14.5 months (3~17.5 months)", "procedure": "After administration of 14.5 months, the cognitive function was analyzed by Morris water maze test like example 10-3-1 (mean±SEM, n=3-5).\n(§2) 17.5 month-old APPswe/PS1deltaE9 double transgenic mice were fed chow alone (saline only), or containing 25 mg/kg/day of chemical—01, for […] (3˜17.5 month).\nThe cognitive function was analyzed by Morris water maze test. Mice ware trained to perform a hidden platform task in the Morris water maze. The latency to find the platform was recorded for each mouse."}, "[9]": {"tested_on": "APPswe/PS1deltaE9 double transgenic mice", "test": "open field activity in APPswe/PS1deltaE9 double transgenic mice", "format": "in vivo, mouse", "conditions": "25 mg/kg/day chemical 01 or 62.5 mg/kg/day ibuprofen for 14.5 months (3~17.5 months)", "procedure": "After administration of drug for 14.5 months, Open field activity test was performed to evaluate locomotor activity and exploratory behavior. 4×4 of scale marks were drawn in white acryl box having a size of 60 cm×60 cm×35 cm (width×length×height) to make sixteen squares. Four squares in the center became center zone and twelve squares around the center zone became peripary zone. Mice were laid into transparent acryl tube (diameter: about 3.5 inches) laid at the left corner of the acryl box for 30 seconds. After 30 seconds, acryl tube was removed to make mouse free. Experiment was once performed for each mouse for 5 minutes. The distance traveled in the open field was recorded (mean±SEM, n=3-5).\nas §2\nOpen field activity was used to evaluate locomotor activity and exploratory behavior. The distance traveled in the open field was recorded and performance was analyzed after the testing took place."}, "[10]": {"tested_on": "G93A mouse", "test": "motor performance, onset and survival in G93A mouse (chemical 01)", "format": "in vivo", "procedure": "G93A (Glycine Alanine) mouse having similar pathophysiological characteristics with ALS human patient was used to evaluate therapeutic effect of drug in ALS (amyotrophic lateral sclerosis), one of main degenerative brain diseases. It was analyzed whether treatment with 5 mg/kg/day or 20 mg/kg/day of chemical 01 improved motor performance ability or not.\nIn PaGE test and Rotarod test, onset and mortality were analyzed for four mice per each group (FIGS. 13C-D). […] In survival ability, G93A mouse fed with chow only, G93A mouse treated with 5 mg/kg/day of chemical 01 and G93A mouse treated with 20 mg/kg/day of chemical 01 survived for 131.57 days, 153.13 days, and 150.73 days, respectively. Treatment with chemical 01 extended survival rate of G93A mouse (FIG. 13D)."}, "[11]": {"tested_on": "cerebral cortical cell cultures", "test": "nerve cell death by MPP+ in cerebral cortical cell cultures (LDH)", "format": "cell-based", "conditions": "50 uM MPP+", "procedure": "Cerebral cortical cell cultures (DIV 13˜15) were continuously exposed to 50 uM MPP+ alone or with inclusion of 0.03-3 uM of chemical 01. After 24 hours, activity of LDH released outside cell was evaluated to quantify death of nerve cell (mean±SEM, n=4 culture well/each group)."}, "[12]": {"conditions": "2-hydroxy TTBA 30 mg/kg/d, 0.2% lithium carbonate, or both, in diet from 8 weeks of age, n=13"}}, "note": "Several values for one entry are separate records, joined by “and”; a condition that tells them apart may be missing. Equal values may be shown once.", "data": [{"molecule": "O=C(O)c1cc(NCc2c(F)c(F)c(C(F)(F)F)c(F)c2F)ccc1O", "note": "[2-Hydroxy-TTBA, 2-hydroxy-5-(2,3,5,6-tetrafluoro-4-trifluoromethyl-benzylamino)-benzoic acid]", "values": [{"measurement": "Mortality (survival)", "setting": "[1]; [12]", "result": "143.8 days and 143.8^a ± 2.83 days"}, {"measurement": "Onset from PaGE", "setting": "[1]; [12]", "result": "114.1 days and 114.1^a ± 2.02 days"}, {"measurement": "Onset from Rotarod", "setting": "[1]; [12]", "result": "112.3 days and 112.3^a ± 2.89 days"}, {"measurement": "weight loss, % of the wild type", "setting": "[1]; G93A mice at 18 weeks of age, oral administration in diet", "result": 41, "unit": "%"}, {"measurement": "extension reflex, motor strength, and coordination", "setting": "[1]; G93A mice, drug in diet", "result": "improved"}, {"measurement": "degeneration (loss) of ventral motor neurons in lumbar spinal cord", "setting": "[1]; at 16 weeks of age", "result": 57, "unit": "%"}, {"measurement": "motor performance versus vehicle-treated control", "setting": "[1]; from 11 weeks to 18 weeks, in the diet", "result": "better motor performance"}]}, {"molecule": "O=C(O)c1cc(NCCc2ccc(C(F)(F)F)cc2)ccc1O", "note": "[chemical 01, 2-Hydroxy-5-[2-(4-trifluoromethyl-phenyl)-ethylamino]-benzoic acid]", "values": [{"measurement": "IC50", "setting": "[2]", "result": 9.55, "unit": "µM"}, {"measurement": "IC50", "setting": "[3]", "result": 0.97, "unit": "µM"}, {"measurement": "hydroxyl radical scavenging activity", "setting": "[3]; 0.1 uM", "result": 13.35, "unit": "%"}, {"measurement": "hydroxyl radical scavenging activity", "setting": "[3]; 1 uM", "result": 33.33, "unit": "%"}, {"measurement": "hydroxyl radical scavenging activity", "setting": "[3]; 10 uM", "result": 71.72, "unit": "%"}, {"measurement": "decrease of IL-1β released into media", "setting": "[4]; 100 uM, 1 ug/ml LPS, 24 hours", "result": "about 80%"}, {"measurement": "IL-1β decrease, in words", "setting": "[4]; 1~100 uM", "result": "dose-dependent manner"}, {"measurement": "decrease of IL-6 released into media", "setting": "[5]; 100 uM, 1 ug/ml LPS, 24 hours", "result": "~70", "unit": "%"}, {"measurement": "IL-6 decrease, in words", "setting": "[5]; 1~100 uM", "result": "dose-dependent manner"}, {"measurement": "amyloid plaque burden, in words", "setting": "[6]; 25 mg/kg/d for 8 months (9~17 month)", "result": "reduced significantly"}, {"measurement": "reduction of amyloid plaque burden compared to control", "setting": "[6]; 25 mg/kg/day in chow for 8 months (9~17 months)", "result": 39.2, "unit": "%"}, {"measurement": "reduction in plaque burden", "setting": "[6]; 100 mg/kg/day for 6 months (from 6 to 12 months)", "result": 62, "unit": "%"}, {"measurement": "SDS-soluble/insoluble Aβ40 or Aβ42 levels, in words", "setting": "[7]; 25 mg/kg/d chemical 01 or 62.5 mg/kg/day ibuprofen for 14.5 months", "result": "reduced"}, {"measurement": "reduction in SDS-insoluble Aβ40 levels", "setting": "[7]; 25 mg/kg/day for 4 months (from 8.5 to 12.5 month-old)", "result": 27, "unit": "%"}, {"measurement": "reduction in SDS-insoluble Aβ40 levels", "setting": "[7]; 25 mg/kg/day for 7 months (from 3.5 to 10.5 months)", "result": 42, "unit": "%"}, {"measurement": "escape latency / cognitive function (Morris water maze)", "setting": "[8]", "result": "shorter"}, {"measurement": "open field activity (distance traveled)", "setting": "[9]", "result": "reduced significantly"}, {"measurement": "survival", "setting": "[10]; 5 mg/kg/day", "result": 153.13, "unit": "days"}, {"measurement": "onset", "setting": "[10]; 5 mg/kg/day or 20 mg/kg/day", "result": 125.67, "unit": "days"}, {"measurement": "survival", "setting": "[10]; 20 mg/kg/day", "result": 150.73, "unit": "days"}, {"measurement": "motor performance versus control fed with general chow only (Rotarod, PaGE)", "setting": "[10]; 5 or 20 mg/kg/day in chow, from 14 weeks to 17 weeks", "result": "better motor performance"}, {"measurement": "IC50", "setting": "[11]; 24 hours, LDH, read-out: IC50, nerve cell death caused by MPP+", "result": 0.057, "unit": "µM"}, {"measurement": "nerve cell death caused by MPP+, in words", "setting": "[11]; 0.03-3 uM", "result": "dose-dependent manner"}]}]}
